Test results from patent publication US20070264679A1, “Method for analyzing the activity of lipoxygenase using a water-soluble substrate” (Chungnam National University Industry Collaboration …, priority 2006, published 2007).

Molecular target: T1, Leukocyte 12-lipoxygenase (leukocyte LOX) (Sus scrofa, UniProt P16469)
T1 construct: purchased Cayman Chemical Co. (Ann Arbor, Mich., USA)
T1 sequence (P16469 1-663): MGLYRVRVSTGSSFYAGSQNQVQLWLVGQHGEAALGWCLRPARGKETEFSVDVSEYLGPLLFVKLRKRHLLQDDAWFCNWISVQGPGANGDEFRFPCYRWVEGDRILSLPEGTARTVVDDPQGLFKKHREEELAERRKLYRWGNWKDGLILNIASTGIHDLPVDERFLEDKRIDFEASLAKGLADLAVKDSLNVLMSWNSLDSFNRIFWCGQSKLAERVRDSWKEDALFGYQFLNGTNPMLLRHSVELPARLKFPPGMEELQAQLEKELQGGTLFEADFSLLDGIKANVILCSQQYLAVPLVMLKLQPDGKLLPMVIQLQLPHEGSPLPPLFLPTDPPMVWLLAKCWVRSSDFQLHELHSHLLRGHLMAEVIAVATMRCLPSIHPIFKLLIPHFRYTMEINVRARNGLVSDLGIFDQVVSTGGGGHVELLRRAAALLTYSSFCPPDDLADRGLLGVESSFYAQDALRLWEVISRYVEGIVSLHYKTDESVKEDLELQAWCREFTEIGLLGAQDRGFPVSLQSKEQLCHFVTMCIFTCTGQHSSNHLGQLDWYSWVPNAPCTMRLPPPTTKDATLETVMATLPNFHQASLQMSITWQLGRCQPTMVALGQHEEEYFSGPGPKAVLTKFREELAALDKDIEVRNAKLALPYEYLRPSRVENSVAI
Assay: Kinetics of oxygenation of arachidonic acid or arachidonoyl-lysophospholipids by leukocyte LOX
Format: biochemical, porcine
Conditions: for Vm: 0.03% Tween 20
Experimental: Activities of various LOXs were monitored by measuring the increase in absorbance at 234 nm due to the formation of hydroperoxide (ε234=25,000 M^−1 cm^−1) at 25° C. as described before (Smith et al, J. Biol. Chem. 247 (1972) 1038-1047). One unit is defined as the amount of LOXs that can produce one nanomole of conjugated diene per min. The reaction mixture (500 μl) included reticulocyte LOX (2 units/ml) in 50 mM phosphate buffer (pH 7.4), porcine leukocyte LOX (1 unit/ml) in 100 mM phosphate buffer (pH 7.5) containing 5 mM EDTA and 0.03% Tween 20, or soybean LOX-1 (2.5 units/ml) in 50 mM borax buffer (pH 9.0) at 25° C. The reactions were started by including each substrate (100 μM) into the above reaction mixture.
Reticulocyte LOX (2 units/ml), leukocyte LOX (1 units/ml) or soybean LOX-1 (2.5 units/ml) was incubated with each arachidonoyl derivative substrate of various concentrations as described above. The values of kinetic parameters were obtained according to Lineweaver Burke plot analyses as described before (Barroso et al, J. Chromatogr. B. Analyt. Technol. Biomed. Life. Sci. 814 (2005) 21-28).

CCCCC/C=C\C/C=C\C/C=C\C/C=C\CCCC(=O)OCC(O)COP(=O)([O-])OCC[N+](C)(C)C (stereo not shown) [Arachidonoyl-lysoPC, 1-Arachidonoyl lysophosphatidylcholine]
efficacy as a substrate for leukocyte LOX (Vm/Km) relative to arachidonic acid (greater than that of arachidonic acid): approximately 10 fold | Vm (leukocyte LOX 1 unit/ml, 100 mM phosphate buffer pH 7.5, 5 mM EDTA): 199.8 ± 16.7 units/mg | Km (leukocyte LOX 1 unit/ml, 100 mM phosphate buffer pH 7.5, 5 mM EDTA, 0.03% Tween 20, 25° C.): 2.6 µM | Vm (leukocyte LOX 1 unit/ml, 100 mM phosphate buffer pH 7.5, 5 mM EDTA, listed as arachidonoyl-lysoPC): 199.8 units/mg
